Assay results as given in PMC11167047 (Cell Death Discovery, 2024).

Experiments:
Test in all cases: kinome screen (33PanQinase)
Type in all cases: biochemical
CDK5/p25NCK = molecular target: T1, CDK5/p25NCK (Homo sapiens, UniProt Q00535)
T1 construct: purchased Reaction Biology Europe GmbH (formerly ProQinase)
Description: (§1) The Kinome Screening was performed by Reaction Biology Europe GmbH (http://reactionbiology.com; Freiburg i. Br., Germany).

CDK7/CycH/MAT1 = molecular target: T2, CDK7/CycH/MAT1 (Homo sapiens, UniProt P50613)
T2 construct: purchased Reaction Biology Europe GmbH (formerly ProQinase)
T2 sequence (P50613 whole entry): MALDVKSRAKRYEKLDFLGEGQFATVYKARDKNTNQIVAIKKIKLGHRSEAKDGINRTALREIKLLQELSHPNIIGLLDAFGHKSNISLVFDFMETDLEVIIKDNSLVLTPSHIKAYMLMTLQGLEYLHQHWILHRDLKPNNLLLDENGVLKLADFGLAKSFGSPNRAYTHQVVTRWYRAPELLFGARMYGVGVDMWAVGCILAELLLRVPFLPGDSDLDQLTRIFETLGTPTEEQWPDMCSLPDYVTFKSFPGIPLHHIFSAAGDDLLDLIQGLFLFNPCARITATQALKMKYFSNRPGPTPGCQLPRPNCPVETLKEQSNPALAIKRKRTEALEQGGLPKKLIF
T2 sequence (P51946 whole entry partner): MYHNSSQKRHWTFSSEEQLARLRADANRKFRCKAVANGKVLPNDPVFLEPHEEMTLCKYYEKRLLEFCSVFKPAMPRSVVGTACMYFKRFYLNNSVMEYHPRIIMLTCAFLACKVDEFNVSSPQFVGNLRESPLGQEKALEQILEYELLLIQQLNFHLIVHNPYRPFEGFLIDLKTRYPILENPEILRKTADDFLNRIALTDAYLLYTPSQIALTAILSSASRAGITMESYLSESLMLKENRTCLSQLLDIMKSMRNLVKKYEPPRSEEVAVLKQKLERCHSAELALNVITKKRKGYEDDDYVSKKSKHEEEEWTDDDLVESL
T2 sequence (P51948 whole entry partner): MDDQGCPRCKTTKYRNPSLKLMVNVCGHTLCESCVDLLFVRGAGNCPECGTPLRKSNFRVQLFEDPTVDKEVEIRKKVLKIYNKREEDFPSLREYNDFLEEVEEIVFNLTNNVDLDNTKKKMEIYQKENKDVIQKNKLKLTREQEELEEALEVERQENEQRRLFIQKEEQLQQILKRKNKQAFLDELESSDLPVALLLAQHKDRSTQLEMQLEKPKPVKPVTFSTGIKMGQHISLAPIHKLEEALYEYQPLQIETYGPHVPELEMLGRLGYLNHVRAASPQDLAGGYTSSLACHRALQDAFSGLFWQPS
Description: as §1

CLK2 = molecular target: T3, CLK2 (Homo sapiens, UniProt P49760)
T3 construct: purchased Reaction Biology Europe GmbH (formerly ProQinase)
Description: as §1

COT = molecular target: T4, COT (Homo sapiens, UniProt P41279)
T4 construct: purchased Reaction Biology Europe GmbH (formerly ProQinase)
Description: as §1

EPHA2 = molecular target: T5, EPHA2 (Homo sapiens, UniProt P29317)
T5 construct: purchased Reaction Biology Europe GmbH (formerly ProQinase)
T5 sequence (P29317 24-976): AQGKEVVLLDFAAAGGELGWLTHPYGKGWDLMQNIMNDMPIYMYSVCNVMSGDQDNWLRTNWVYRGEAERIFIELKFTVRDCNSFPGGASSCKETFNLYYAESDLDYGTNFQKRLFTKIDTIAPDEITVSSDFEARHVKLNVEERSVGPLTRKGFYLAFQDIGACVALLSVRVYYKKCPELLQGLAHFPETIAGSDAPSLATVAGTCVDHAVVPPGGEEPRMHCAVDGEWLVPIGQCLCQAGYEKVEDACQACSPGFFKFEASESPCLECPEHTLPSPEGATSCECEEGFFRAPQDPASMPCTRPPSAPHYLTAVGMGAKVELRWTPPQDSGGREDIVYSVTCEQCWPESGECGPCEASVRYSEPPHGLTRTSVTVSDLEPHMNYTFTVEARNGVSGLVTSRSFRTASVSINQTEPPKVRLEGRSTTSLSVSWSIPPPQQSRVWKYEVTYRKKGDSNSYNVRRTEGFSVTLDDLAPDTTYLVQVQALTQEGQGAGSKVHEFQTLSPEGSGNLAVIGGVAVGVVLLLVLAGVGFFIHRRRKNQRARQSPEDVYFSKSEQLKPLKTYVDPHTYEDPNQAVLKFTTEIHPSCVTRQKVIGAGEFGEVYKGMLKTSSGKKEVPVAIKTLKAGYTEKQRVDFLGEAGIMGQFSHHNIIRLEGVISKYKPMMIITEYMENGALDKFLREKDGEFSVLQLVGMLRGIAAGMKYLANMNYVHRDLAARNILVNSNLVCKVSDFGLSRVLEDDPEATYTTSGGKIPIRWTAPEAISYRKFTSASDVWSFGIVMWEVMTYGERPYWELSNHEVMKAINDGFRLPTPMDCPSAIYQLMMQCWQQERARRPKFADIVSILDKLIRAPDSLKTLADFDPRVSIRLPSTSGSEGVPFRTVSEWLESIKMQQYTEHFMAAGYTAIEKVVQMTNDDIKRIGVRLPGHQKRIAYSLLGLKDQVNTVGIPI
Description: as §1

ERK2 = molecular target: T6, ERK2 (Homo sapiens, UniProt P28482)
T6 construct: purchased Reaction Biology Europe GmbH (formerly ProQinase)
T6 sequence (P28482 whole entry): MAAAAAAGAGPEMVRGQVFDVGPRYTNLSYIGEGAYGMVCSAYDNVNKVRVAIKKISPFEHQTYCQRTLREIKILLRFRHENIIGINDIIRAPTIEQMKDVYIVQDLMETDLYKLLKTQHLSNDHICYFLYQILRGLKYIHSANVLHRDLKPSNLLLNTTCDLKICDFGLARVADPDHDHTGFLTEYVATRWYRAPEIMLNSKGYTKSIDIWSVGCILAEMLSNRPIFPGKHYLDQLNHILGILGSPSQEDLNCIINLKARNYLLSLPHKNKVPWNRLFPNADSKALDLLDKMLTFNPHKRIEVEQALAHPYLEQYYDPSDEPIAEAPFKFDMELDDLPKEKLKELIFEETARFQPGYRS
Description: as §1

FAK = molecular target: T7, FAK (Homo sapiens, UniProt Q05397)
T7 construct: purchased Reaction Biology Europe GmbH (formerly ProQinase)
Description: as §1

FGFR2 = molecular target: T8, FGFR2 (Homo sapiens, UniProt P21802)
T8 construct: purchased Reaction Biology Europe GmbH (formerly ProQinase)
T8 sequence (P21802 22-821): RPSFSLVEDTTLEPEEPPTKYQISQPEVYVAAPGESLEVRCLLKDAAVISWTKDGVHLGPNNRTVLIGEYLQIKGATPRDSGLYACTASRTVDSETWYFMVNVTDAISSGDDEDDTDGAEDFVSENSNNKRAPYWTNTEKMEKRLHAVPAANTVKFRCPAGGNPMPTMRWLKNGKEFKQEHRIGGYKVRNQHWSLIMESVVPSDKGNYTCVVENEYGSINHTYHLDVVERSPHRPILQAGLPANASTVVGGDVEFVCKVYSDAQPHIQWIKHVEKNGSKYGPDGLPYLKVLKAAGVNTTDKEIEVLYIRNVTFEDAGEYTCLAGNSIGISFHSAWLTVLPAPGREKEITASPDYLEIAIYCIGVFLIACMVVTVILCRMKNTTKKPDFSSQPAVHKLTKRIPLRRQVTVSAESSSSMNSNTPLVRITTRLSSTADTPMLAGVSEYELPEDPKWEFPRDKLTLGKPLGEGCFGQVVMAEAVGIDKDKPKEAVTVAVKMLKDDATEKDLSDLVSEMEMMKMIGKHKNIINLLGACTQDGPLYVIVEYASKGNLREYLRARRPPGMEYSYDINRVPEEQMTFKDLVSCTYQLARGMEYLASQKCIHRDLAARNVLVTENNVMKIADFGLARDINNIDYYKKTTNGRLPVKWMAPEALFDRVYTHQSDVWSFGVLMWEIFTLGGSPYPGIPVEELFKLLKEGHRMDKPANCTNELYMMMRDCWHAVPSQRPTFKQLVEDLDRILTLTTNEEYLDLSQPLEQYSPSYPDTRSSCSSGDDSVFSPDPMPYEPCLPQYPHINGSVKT
Description: as §1

FGR = molecular target: T9, FGR (Homo sapiens, UniProt P09769)
T9 construct: purchased Reaction Biology Europe GmbH (formerly ProQinase)
T9 sequence (P09769 whole entry): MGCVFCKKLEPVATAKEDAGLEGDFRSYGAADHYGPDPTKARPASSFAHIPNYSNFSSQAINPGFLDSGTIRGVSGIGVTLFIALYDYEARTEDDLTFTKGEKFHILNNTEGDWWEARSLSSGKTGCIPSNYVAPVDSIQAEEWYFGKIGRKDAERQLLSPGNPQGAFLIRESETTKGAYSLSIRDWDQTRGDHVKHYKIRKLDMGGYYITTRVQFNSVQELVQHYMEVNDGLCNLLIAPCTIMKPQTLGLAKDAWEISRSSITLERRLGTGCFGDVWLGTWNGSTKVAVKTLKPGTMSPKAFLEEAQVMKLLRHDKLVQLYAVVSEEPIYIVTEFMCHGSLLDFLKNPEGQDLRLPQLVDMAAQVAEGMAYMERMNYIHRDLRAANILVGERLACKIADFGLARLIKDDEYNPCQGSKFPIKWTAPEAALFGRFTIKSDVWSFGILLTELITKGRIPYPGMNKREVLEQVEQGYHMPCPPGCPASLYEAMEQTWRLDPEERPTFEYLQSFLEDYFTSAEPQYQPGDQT
Description: as §1

LTK = molecular target: T10, LTK (Homo sapiens, UniProt P29376)
T10 construct: purchased Reaction Biology Europe GmbH (formerly ProQinase)
T10 sequence (P29376 17-864): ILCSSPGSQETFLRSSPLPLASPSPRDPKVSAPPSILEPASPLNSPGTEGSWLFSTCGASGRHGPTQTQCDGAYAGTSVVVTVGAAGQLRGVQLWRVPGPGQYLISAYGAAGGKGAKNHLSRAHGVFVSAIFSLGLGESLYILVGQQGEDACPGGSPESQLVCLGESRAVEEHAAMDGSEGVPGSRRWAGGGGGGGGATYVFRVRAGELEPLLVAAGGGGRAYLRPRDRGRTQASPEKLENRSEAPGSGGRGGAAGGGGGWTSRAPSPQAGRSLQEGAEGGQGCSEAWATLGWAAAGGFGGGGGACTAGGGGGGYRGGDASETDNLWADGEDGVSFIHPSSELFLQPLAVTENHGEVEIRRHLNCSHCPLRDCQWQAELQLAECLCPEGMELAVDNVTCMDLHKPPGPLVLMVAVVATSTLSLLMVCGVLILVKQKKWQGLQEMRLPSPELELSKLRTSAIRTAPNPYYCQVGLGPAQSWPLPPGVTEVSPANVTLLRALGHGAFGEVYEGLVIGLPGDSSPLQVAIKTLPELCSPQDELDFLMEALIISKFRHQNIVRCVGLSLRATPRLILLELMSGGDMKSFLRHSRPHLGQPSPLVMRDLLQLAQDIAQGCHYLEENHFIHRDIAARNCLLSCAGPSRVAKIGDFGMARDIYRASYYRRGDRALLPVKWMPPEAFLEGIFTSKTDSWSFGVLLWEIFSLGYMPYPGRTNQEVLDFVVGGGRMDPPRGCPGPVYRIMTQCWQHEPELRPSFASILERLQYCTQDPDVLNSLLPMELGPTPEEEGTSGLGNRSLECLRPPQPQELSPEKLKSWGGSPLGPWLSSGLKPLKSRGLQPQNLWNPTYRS
Description: as §1

MAP4K5 = molecular target: T11, MAP4K5 (Homo sapiens, UniProt Q9Y4K4)
T11 construct: purchased Reaction Biology Europe GmbH (formerly ProQinase)
Description: as §1

MST2 = molecular target: T12, MST2 (Homo sapiens, UniProt Q13188)
T12 construct: purchased Reaction Biology Europe GmbH (formerly ProQinase)
T12 sequence (Q13188 1-491): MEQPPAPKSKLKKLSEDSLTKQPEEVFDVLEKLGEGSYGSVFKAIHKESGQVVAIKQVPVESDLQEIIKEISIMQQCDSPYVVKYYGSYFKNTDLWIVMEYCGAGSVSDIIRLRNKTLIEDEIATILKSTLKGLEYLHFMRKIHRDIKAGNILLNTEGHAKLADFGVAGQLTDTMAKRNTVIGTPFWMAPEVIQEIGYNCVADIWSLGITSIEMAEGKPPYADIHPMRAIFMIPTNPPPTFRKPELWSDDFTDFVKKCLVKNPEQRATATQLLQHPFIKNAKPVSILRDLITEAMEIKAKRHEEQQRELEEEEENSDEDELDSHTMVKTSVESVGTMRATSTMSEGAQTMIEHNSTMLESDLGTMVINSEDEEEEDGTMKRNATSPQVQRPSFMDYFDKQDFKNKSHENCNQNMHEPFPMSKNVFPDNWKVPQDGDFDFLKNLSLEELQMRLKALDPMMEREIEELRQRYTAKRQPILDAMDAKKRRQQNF
Description: as §1

MST4 = molecular target: T13, MST4 (Homo sapiens, UniProt Q9P289)
T13 construct: purchased Reaction Biology Europe GmbH (formerly ProQinase)
Description: as §1

PKCζ = molecular target: T14, PKCζ (Homo sapiens, UniProt Q05513)
T14 construct: purchased Reaction Biology Europe GmbH (formerly ProQinase)
T14 sequence (Q05513 1-592): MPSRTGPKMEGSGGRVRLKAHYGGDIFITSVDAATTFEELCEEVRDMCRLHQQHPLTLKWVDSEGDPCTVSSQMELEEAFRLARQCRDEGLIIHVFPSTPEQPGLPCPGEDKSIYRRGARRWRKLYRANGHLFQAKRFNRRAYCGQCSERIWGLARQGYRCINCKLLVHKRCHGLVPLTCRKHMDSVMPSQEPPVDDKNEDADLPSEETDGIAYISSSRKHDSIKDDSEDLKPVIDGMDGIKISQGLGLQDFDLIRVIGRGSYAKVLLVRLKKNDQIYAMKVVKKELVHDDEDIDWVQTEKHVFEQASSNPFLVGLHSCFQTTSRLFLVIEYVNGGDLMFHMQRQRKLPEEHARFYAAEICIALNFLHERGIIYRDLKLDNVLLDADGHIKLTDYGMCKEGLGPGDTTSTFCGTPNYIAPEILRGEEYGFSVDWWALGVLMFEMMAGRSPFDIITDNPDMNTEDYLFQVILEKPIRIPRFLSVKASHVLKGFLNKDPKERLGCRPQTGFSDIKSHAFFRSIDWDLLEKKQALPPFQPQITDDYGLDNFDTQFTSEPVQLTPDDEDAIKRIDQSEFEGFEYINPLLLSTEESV
Description: as §1

S6Kbeta = molecular target: T15, S6Kbeta (Homo sapiens, UniProt Q9UBS0)
T15 construct: purchased Reaction Biology Europe GmbH (formerly ProQinase)
Description: as §1

STK23 = molecular target: T16, STK23 (Homo sapiens, UniProt Q9UPE1)
T16 construct: purchased Reaction Biology Europe GmbH (formerly ProQinase)
Description: as §1

TTBK1 = molecular target: T17, TTBK1 (Homo sapiens, UniProt Q5TCY1)
T17 construct: purchased Reaction Biology Europe GmbH (formerly ProQinase)
Description: as §1

TYK2 = molecular target: T18, TYK2 (Homo sapiens, UniProt P29597)
T18 construct: purchased Reaction Biology Europe GmbH (formerly ProQinase)
Description: as §1

p38Δ = molecular target: T19, p38Δ (Homo sapiens, UniProt O15264)
T19 construct: purchased Reaction Biology Europe GmbH (formerly ProQinase)
T19 sequence (O15264 1-365): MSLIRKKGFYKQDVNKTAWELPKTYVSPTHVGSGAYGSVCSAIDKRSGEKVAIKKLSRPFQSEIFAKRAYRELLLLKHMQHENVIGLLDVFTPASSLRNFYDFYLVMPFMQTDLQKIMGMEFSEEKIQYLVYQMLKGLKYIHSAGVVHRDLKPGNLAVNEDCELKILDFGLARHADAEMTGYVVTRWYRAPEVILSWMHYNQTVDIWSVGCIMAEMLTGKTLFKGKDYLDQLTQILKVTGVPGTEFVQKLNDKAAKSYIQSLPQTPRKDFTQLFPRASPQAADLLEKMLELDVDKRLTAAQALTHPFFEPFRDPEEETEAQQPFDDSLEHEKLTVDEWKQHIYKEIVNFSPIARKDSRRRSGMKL
Description: as §1

T1 sequence (Q00535 whole entry): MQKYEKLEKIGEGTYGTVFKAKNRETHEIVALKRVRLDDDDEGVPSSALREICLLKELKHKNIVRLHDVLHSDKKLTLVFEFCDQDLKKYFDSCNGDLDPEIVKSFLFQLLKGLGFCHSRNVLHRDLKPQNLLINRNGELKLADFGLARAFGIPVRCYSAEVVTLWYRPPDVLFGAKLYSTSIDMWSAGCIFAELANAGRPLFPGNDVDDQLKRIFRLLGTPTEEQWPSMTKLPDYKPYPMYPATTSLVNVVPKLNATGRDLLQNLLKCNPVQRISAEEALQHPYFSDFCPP
T1 sequence (Q15078 99-307 partner limits assumed): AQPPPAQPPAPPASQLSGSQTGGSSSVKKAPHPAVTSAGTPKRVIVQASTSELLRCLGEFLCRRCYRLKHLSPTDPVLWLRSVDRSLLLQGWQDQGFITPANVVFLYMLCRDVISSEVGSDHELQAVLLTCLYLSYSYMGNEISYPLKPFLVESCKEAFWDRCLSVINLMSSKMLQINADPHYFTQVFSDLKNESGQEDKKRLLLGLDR

Structure (SMILES) | residual kinase activity (CDK5/p25NCK; 0.3 µM) | residual kinase activity (CDK7/CycH/MAT1; 0.3 µM) | residual kinase activity (CLK2; 0.3 µM) | residual kinase activity (COT; 0.3 µM) | residual kinase activity (EPHA2; 0.3 µM) | residual kinase activity (ERK2; 0.3 µM) | residual kinase activity (FAK; 0.3 µM) | residual kinase activity (FGFR2; 0.3 µM) | residual kinase activity (FGR; 0.3 µM) | residual kinase activity (LTK; 0.3 µM) | residual kinase activity (MAP4K5; 0.3 µM) | residual kinase activity (MST2; 0.3 µM) | residual kinase activity (MST4; 0.3 µM) | residual kinase activity (PKCζ; 0.3 µM) | residual kinase activity (S6Kbeta; 0.3 µM) | residual kinase activity (STK23; 0.3 µM) | residual kinase activity (TTBK1; 0.3 µM) | residual kinase activity (TYK2; 0.3 µM) | residual kinase activity (p38Δ; 0.3 µM) | further results
c1ccc(CNc2cc(-c3c[nH]c4ncccc34)ccn2)cc1 [meriolin 36] | 0 % of control | 7 % of control | 1 % of control | 85 % of control | 101 % of control | 79 % of control | 85 % of control | 52 % of control | 40 % of control | 46 % of control | 3 % of control | 19 % of control | 52 % of control | 85 % of control | 87 % of control | 95 % of control | 101 % of control | 6 % of control | 59 % of control | residual kinase activity (CDK5/p25NCK; 3 µM): 1 % of control; residual kinase activity (CDK7/CycH/MAT1; 3 µM): 2 % of control; residual kinase activity (CLK2; 3 µM): 2 % of control; residual kinase activity (COT; 3 µM): 92 % of control; residual kinase activity (EPHA2; 3 µM): 72 % of control; residual kinase activity (ERK2; 3 µM): 30 % of control; residual kinase activity (FAK; 3 µM): 60 % of control; residual kinase activity (FGFR2; 3 µM): 9 % of control; residual kinase activity (FGR; 3 µM): 6 % of control; residual kinase activity (LTK; 3 µM): 11 % of control; residual kinase activity (MAP4K5; 3 µM): 0 % of control; residual kinase activity (MST2; 3 µM): 4 % of control; residual kinase activity (MST4; 3 µM): 12 % of control; residual kinase activity (PKCζ; 3 µM): 29 % of control; residual kinase activity (S6Kbeta; 3 µM): 67 % of control; residual kinase activity (STK23; 3 µM): 88 % of control; residual kinase activity (TTBK1; 3 µM): 77 % of control; residual kinase activity (TYK2; 3 µM): 1 % of control; residual kinase activity (p38Δ; 3 µM): 14 % of control
COc1ccnc2[nH]cc(-c3cc(N)nc(N)c3)c12 [meriolin 16] | 1 % of control | 6 % of control | 1 % of control | 86 % of control | 101 % of control | 87 % of control | 89 % of control | 85 % of control | 105 % of control | 98 % of control | 52 % of control | 77 % of control | 81 % of control | 78 % of control | 103 % of control | 78 % of control | 108 % of control | 68 % of control | 24 % of control | residual kinase activity (CDK5/p25NCK; 0.03 µM): 16 % of control; residual kinase activity (CDK7/CycH/MAT1; 0.03 µM): 44 % of control; residual kinase activity (CLK2; 0.03 µM): 8 % of control; residual kinase activity (COT; 0.03 µM): 104 % of control; residual kinase activity (EPHA2; 0.03 µM): 109 % of control; residual kinase activity (ERK2; 0.03 µM): 103 % of control; residual kinase activity (FAK; 0.03 µM): 102 % of control; residual kinase activity (FGFR2; 0.03 µM): 94 % of control; residual kinase activity (FGR; 0.03 µM): 111 % of control; residual kinase activity (LTK; 0.03 µM): 110 % of control; residual kinase activity (MAP4K5; 0.03 µM): 87 % of control; residual kinase activity (MST2; 0.03 µM): 100 % of control; residual kinase activity (MST4; 0.03 µM): 78 % of control; residual kinase activity (PKCζ; 0.03 µM): 97 % of control; residual kinase activity (S6Kbeta; 0.03 µM): 89 % of control; residual kinase activity (STK23; 0.03 µM): 109 % of control; residual kinase activity (TTBK1; 0.03 µM): 116 % of control; residual kinase activity (TYK2; 0.03 µM): 105 % of control; residual kinase activity (p38Δ; 0.03 µM): 79 % of control
